Assay results published in patent publication US4192871A, “Chemical compounds” (Glaxo Laboratories Limited, priority 1976, dated 1980).

Legend:
[1] = pH of the salt solutions; assay type: physicochemical
Method: (§1) A solution of the above free base (492 mg; 1 mmole) in ethanol (10 ml) was treated with a solution (10 ml) of M/10 citric acid in ethanol water (9:1) and the mixture evaporated in vacuo at low temperature to afford a froth.
(§2) Table 5 summarises the properties and preparation of salts of the invention by one of the following methods:
(§3) A. The 11β-aminoester (1 part) was added to a solution of the acid (1 molar part) in water and the mixture stirred or shaken until a clear solution was obtained. The solution was made up with water to the weight indicated, filtered through a membrane and the pH determined.
(§4) B. The 11β-aminoester (1 part) was added to a solution of the acid (1 molar part) in water and the mixture stirred or shaken. As free base remained undissolved, further acid was added and the mixture agitated again. The solution was made up with water to the weight indicated and any material which then remained undissolved was collected in a weighed funnel and the weight of free base dissolved calculated and the pH of the solution measured.
(§5) C. A mixture of the 11β-aminoester (1 part), a 0.1 M solution of the acid (1 molar part) and ethanol was evaporated in vacuo and dried to constant weight. The residue was dissolved in a little water and any material which then remained undissolved collected in a weighed funnel and the weight of free base dissolved calculated. The solution was made up with water to the weight indicated and its pH measured.
(§6) D. The 11β-aminoester (1 part) was added to a solution of the acid (1 molar part) in water and the mixture stirred or shaken. The solution was made up with water to the weight indicated. The material remaining undissolved was collected in a weighed funnel and the weight of free base dissolved calculated and the pH of the solution measured.
(§7) E. As in method C except that further acid was added to the residue after addition of the small amount of water.
11β-N,N-Diethylaminoacetoxy-2β-ethoxy-3α-hydroxy-5α-pregnan-20-one (1.45 g) was agitated with citric acid monohydrate (621 mg) in 0.9% w/v sodium chloride solution (steriflex^(R)) (130 ml.) at 20° for 16.5 hours. The resulting solution was stirred at 21° and N/5 sodium hydroxide solution in steriflex^(R) (10.5 ml) was added dropwise during 30 minutes, raising the pH from 3.63 to 4.52. The solution was diluted to 162.5 g so that the concentration of steroid was 9 mg/ml. The solution of the citrate was filtered through a membrane and finally filtered into 8 sterile ampoules.
11β-(N-Butyl-N-ethylaminoacetoxy)-3α-hydroxy-5α-pregnan-20-one (1.80 g) was agitated with citric acid monohydrate (793 mg) in 0.9% w/v sodium chloride solution (steriflex^(R)) (160 ml) at 20° for 19.5 hours. The resulting solution was slightly cloudy. This solution was stirred at 21° and N/5 sodium hydroxide solution in steriflex^(R) (5.8 ml) was added dropwise during 15 minutes, raising the pH from 3.62 to 4.00. The solution was diluted to 201.2 g so that the concentration of steroid was 9 mg/ml. The cloudiness was removed by filtration through a membrane and the clear solution of the citrate was filtered into 8 sterile ampoules.
Sodium iodide (0.250 g) and diethylamine (0.5 ml) were added to a solution of 11β-chloroacetoxy-2β-ethoxy-3α-hydroxy-D-homo-5α-pregnan-20-one (0.250 g) in acetone (10 ml) and the mixture was left at room temperature for 3 days during which time a white solid precipated. Water was added and the yellow solution was concentrated in vacuo whereupon crystallisation occurred. The needles were filtered off and washed well with acetone/water yielding the title compound (0.201 g), m.p. 160°-73°, [α]D +60.8°. The above base (0.101 g) was stirred with citric acid monohydrate (0.042 g) in water (9.5 ml) for 21 hours. The solution was made up to 10.1 g by weight. The solid remaining out of solution was filtered off, dried and weighed. The solution was passed through a millipore filter giving an aqueous solution of the title compound, concentration 9.75 mg/ml, pH 3.66. […]

[2] = dissolution of the 11β-aminoester salts in aqueous acid (Table 5 and Examples 101, 225-229); assay type: physicochemical
Method: as §1, §2, §3, §4, §5, §6, §7
The solid citric acid used was as its monohydrate.
Sodium iodide (0.250 g) and diethylamine (0.5 ml) were added to a solution of 11β-chloroacetoxy-2β-ethoxy-3α-hydroxy-D-homo-5α-pregnan-20-one (0.250 g) in acetone (10 ml) and the mixture was left at room temperature for 3 days during which time a white solid precipated. Water was added and the yellow solution was concentrated in vacuo whereupon crystallisation occurred. The needles were filtered off and washed well with acetone/water yielding the title compound (0.201 g), m.p. 160°-73°, [α]D +60.8°. The above base (0.101 g) was stirred with citric acid monohydrate (0.042 g) in water (9.5 ml) for 21 hours. The solution was made up to 10.1 g by weight. The solid remaining out of solution was filtered off, dried and weighed. The solution was passed through a millipore filter giving an aqueous solution of the title compound, concentration 9.75 mg/ml, pH 3.66.
The above base (0.096 g) was stirred in a solution of citric acid monohydrate (0.038 g) in water (8.5 ml) for 20 hours. A large proportion of the steroid remained out of solution. More citric acid (0.038 g) was added and the mixture stirred for a further 6 hours. The solution was made up to 9.6 g by weight and the solid remaining out of solution was filtered off, dried and weighed. The solution was passed through a millipore filter giving an aqueous solution of the title compound, concentration 9.5 mg/ml, pH 2.85.
To a solution of citric acid monohydrate (52.5 mg) in water (2 ml) was added the above free base (115 mg). More water (8 ml) was added and the mixture was stirred for 72 hrs. A small amount of steroid remained out of solution and more citric acid (52.5 mg) was added. Within 5 mins. a clear solution was obtained which was made up to 11.5 g with water and filtered through a millipore filter yielding an aqueous solution of the title citrate, concentration 10 mg/ml, pH 3.0.
The above free base (112 mg) was added to a solution of citric acid monohydrate (52.5 mg) in water (2 ml). More water (8 ml) was added and the mixture was swirled from time to time. […]

[3] = aqueous solution of the salt, Table 5
[4] = method A: clear solution, 1 molar part acid, made up with water to WT. of solution 10 g, except Ex. 121 and 150: 12, 123: 12.3, 124: 7.5, 129: 10.3, 135 and 139: 8.95, 164: 10.35, 170: 10.4, 181: 10.04, 187: 9.5, 210: 10.2, 221: 15 g
[5] = method D: 1 molar part acid, undissolved material weighed, WT. of solution 10 g, except Ex. 136: 8.95, 140: 9.52, 165 and 167: 10.1, 190 and 198: 9.8, 191: 8.9, 194: 6.6, 204: 10.09, 219: 10.6 g
[6] = method B: further acid added, undissolved material weighed, WT. of solution 10 g, except Ex. 130 and 141: 9.2, 142: 9.23, 143, 144, 189 and 199: 9.8, 149: 10.6, 153: 7.9, 162 and 188: 9.5, 163: 68, 166: 10.4, 168: 10.7, 169: 10.9, 183: 8.05, 184 and 201: 9.83, 185: 7.1, 186: 9.3, 192: 10.07, 193: 6.4, 195: 6.8, 196: 7, 197: 7.2, 200: 10.1, 206: 15 g
[7] = method C: ethanol evaporated, residue in water, undissolved material weighed, WT. of solution Ex. 118: 10, 120: 10.4, 148: 9.54, 152: 5.6, 154: 9.1, 155: 8.77, 156: 9.06, 157: 9.5, 158: 9.38, 159: 9.17, 179: 9.65, 180: 11.7, 182: 4.9, 202: 12.05, 213: 12, 214: 11.5, 215: 11.1, 216: 11.6, 217: 12.1 g

SMILES: CCCCN(C)CC(=O)O[C@H]1C[C@]2(C)[C@@H](C(C)=O)CC[C@H]2[C@@H]2CC[C@H]3C[C@H](O)[C@@H](OCC)C[C@]3(C)[C@H]21 [Example 121]
- pH [1, 3]: 3.65
- Dissolved aminoester [2, 4]: 120 mg

SMILES: C=CCN(C)CC(=O)O[C@H]1C[C@]2(C)[C@@H](C(C)=O)CC[C@H]2[C@@H]2CC[C@H]3C[C@H](O)CC[C@]3(C)[C@H]21 [Example 191]
- pH [1, 3]: 3.20
- Dissolved aminoester [2, 5]: 86.1 mg

SMILES: CCCN(CCC)CC(=O)O[C@H]1C[C@]2(C)[C@@H](C(=O)CO)CC[C@H]2[C@@H]2CC[C@H]3C[C@H](O)CC[C@]3(C)[C@H]21 [Example 210]
- pH [1, 3]: 3.7
- Dissolved aminoester [2, 4]: 100 mg

SMILES: CCCO[C@H]1C[C@@]2(C)[C@@H](CC[C@@H]3[C@@H]2[C@@H](OC(=O)CN(CC)CC)C[C@]2(C)[C@@H](C(C)=O)CC[C@@H]32)C[C@@H]1O [Example 122]
- pH ([1]; solution of the salt in saline, before any adjustment): 3.5
- Dissolved aminoester ([2]; method A, 0.9% w/v saline in place of water, WT. of solution Ex. 122: 37.5 g, 222: 50 g): 375 mg

SMILES: CC(=O)[C@H]1CC[C@H]2[C@@H]3CC[C@H]4C[C@H](O)CC[C@]4(C)[C@H]3[C@@H](OC(=O)CN(C)C3CCCCC3)C[C@]12C [Example 127]
- pH [1, 3]: 3.62
- Dissolved aminoester [2, 4]: 100 mg

SMILES: CCN(CC)CC(=O)OC1CC2(C)C(C(C)=O)CCC2C2CCC3CC(O)C(C)CC3(C)C12 (centres unmarked) [Example 173]
- pH [1, 3]: 2.82
- Dissolved aminoester [2, 6]: 78 mg

SMILES: C=CCN(CC=C)CC(=O)O[C@H]1C[C@]2(C)[C@@H](C(C)=O)CC[C@H]2[C@@H]2CC[C@H]3C[C@H](O)CC[C@]3(C)[C@H]21 [Example 118]
- pH [1, 3]: 2.55
- Dissolved aminoester [2, 7]: 38 mg

SMILES: CCN(CC)CC(=O)OC1CC2(C)C(C(=O)COC)CCC2C2CCC3CC(O)CCC3(C)C12 (centres unmarked) [Example 172]
- pH [1, 3]: 3.2
- Dissolved aminoester [2, 4]: 100 mg

SMILES: CCCN(C)CC(=O)O[C@H]1C[C@]2(C)[C@@H](C(C)=O)CC[C@H]2[C@@H]2CC[C@H]3C[C@H](O)CC[C@]3(C)[C@H]21 [Example 117]
- pH [1, 3]: 3.4
- Dissolved aminoester [2, 4]: 100 mg

SMILES: CC(=O)[C@H]1CC[C@H]2[C@@H]3CC[C@H]4C[C@](C)(O)CC[C@]4(C)[C@H]3[C@@H](OC(=O)CN3CCCCC3)C[C@]12C [Example 133]
- pH [1, 3]: 3.7
- Dissolved aminoester [2, 4]: 100 mg

SMILES: CC(=O)C1CCC2C3CCC4CC(O)C(C)CC4(C)C3C(OC(=O)CN3CCC(C)CC3)CC12C (centres unmarked) [Example 175]
- pH [1, 3]: 2.96
- Dissolved aminoester [2, 6]: 95 mg

SMILES: CCCCCN(C)CC(=O)O[C@H]1C[C@]2(C)[C@@H](C(C)=O)CC[C@H]2[C@@H]2CC[C@H]3C[C@H](O)CC[C@]3(C)[C@H]21 [Example 185]
- pH [1, 3]: 2.86
- Dissolved aminoester [2, 6]: 65.3 mg

SMILES: CCN(CC)CC(=O)O[C@H]1C[C@]2(C)[C@@H](C(C)=O)CC[C@H]2[C@@H]2CC[C@H]3C[C@H](O)[C@@H](Cl)C[C@]3(C)[C@H]21 [Example 202]
- pH [1, 3]: 3.65
- Dissolved aminoester [2, 7]: 120.5 mg

SMILES: CC(=O)[C@H]1CC[C@H]2[C@@H]3CC[C@H]4C[C@H](O)CC[C@]4(C)[C@H]3[C@@H](OC(=O)CN(C)Cc3ccccc3)C[C@]12C [Example 119]
- pH [1, 3]: 2.7
- Dissolved aminoester [2, 6]: 73 mg

SMILES: CCC(C)N(CC(=O)O[C@H]1C[C@]2(C)[C@@H](C(C)=O)CC[C@H]2[C@@H]2CC[C@H]3C[C@H](O)CC[C@]3(C)[C@H]21)C(C)CC (some centres unmarked) [Example 147]
- pH [1, 3]: 2.03
- Dissolved aminoester [2, 6]: 85 mg

SMILES: CCCCOC1CC2(C)C(CCC3C4CCC(C(C)=O)C4(C)CC(OC(=O)CN(C)CCCC)C32)CC1O (centres unmarked) [Example 168]
- pH [1, 3]: 2.4
- Dissolved aminoester [2, 6]: 70.5 mg

SMILES: CCN(CC(=O)O[C@H]1C[C@]2(C)[C@@H](C(C)=O)CC[C@H]2[C@@H]2CC[C@H]3C[C@H](O)CC[C@]3(C)[C@H]21)C(C)CC(C)C (some centres unmarked) [Example 197]
- pH [1, 3]: 2.99
- Dissolved aminoester [2, 6]: 63 mg

SMILES: CC(=O)[C@H]1CC[C@H]2[C@@H]3CC[C@H]4C[C@H](O)CC[C@]4(C)[C@H]3[C@@H](OC(=O)C(C)N3CCC(C)CC3)C[C@]12C (some centres unmarked) [Example 179]
- pH ([1]; aqueous solution, pH adjusted with sodium hydroxide solution): 3.66
- Dissolved aminoester [2, 7]: 96.5 mg

SMILES: CCC(C)CN(CC)CC(=O)O[C@H]1C[C@]2(C)[C@@H](C(C)=O)CC[C@H]2[C@@H]2CC[C@H]3C[C@H](O)CC[C@]3(C)[C@H]21 (some centres unmarked) [Example 196]
- pH [1, 3]: 2.53
- Dissolved aminoester [2, 6]: 39 mg

SMILES: CCC(C)CN(C)CC(=O)O[C@H]1C[C@]2(C)[C@@H](C(C)=O)CC[C@H]2[C@@H]2CC[C@H]3C[C@H](O)CC[C@]3(C)[C@H]21 (some centres unmarked) [Example 186]
- pH [1, 3]: 2.85
- Dissolved aminoester [2, 6]: 75 mg

SMILES: CCN(CC)CC(=O)OC1CC2(C)C(C(C)=O)CCC2C2CCC3CC(O)C(OC(C)C)CC3(C)C12 (centres unmarked) [Example 167]
- pH [1, 3]: 3.65
- Dissolved aminoester [2, 5]: 93 mg

SMILES: CCCN(CCC)CC(=O)O[C@H]1C[C@]2(C)[C@@H](C(C)=O)CC[C@H]2[C@@H]2CC[C@H]3C[C@H](O)CC[C@]3(C)[C@H]21 [Example 212]
- pH [1, 3]: 3.6
- Dissolved aminoester ([2]; method E: as C with further acid, WT. of solution Ex. 160: 6.12, 161: 7.8, 203: 12.7, 212: 12.125, 220: 10 g): 73 mg
